Data from ChEMBL document CHEMBL5214952, “Unique iminotetrahydroberberine-corbelled metronidazoles as potential membrane active broad-spectrum antibacterial agents” (Bioorg Med Chem Lett, 2022).
Converted amounts (≈) assume the structure as drawn. The source made the active and inactive calls. No cut-off for these calls is given here.

Key:
Escherichia coli [1] = assay: Antibacterial activity against Escherichia coli ATCC 25922 assessed as inhibition of bacterial growth by CLSI based continuous dilution method; assay type: functional
Acinetobacter baumannii = assay: Antibacterial activity against Acinetobacter baumannii assessed as inhibition of bacterial growth by CLSI based continuous dilution method; assay type: functional
Aspergillus fumigatus = assay: Antifungal activity against Aspergillus fumigatus assessed as inhibition of fungal growth by CLSI based continuous dilution method; assay type: functional, organism-based
Pseudomonas aeruginosa [2] = assay: Antibacterial activity against Pseudomonas aeruginosa assessed as inhibition of bacterial growth by CLSI based continuous dilution method; assay type: functional
Klebsiella pneumoniae = assay: Antibacterial activity against Klebsiella pneumoniae assessed as inhibition of bacterial growth by CLSI based continuous dilution method; assay type: functional
Escherichia coli [3] = assay: Antibacterial activity against Escherichia coli assessed as inhibition of bacterial growth by CLSI based continuous dilution method; assay type: functional
Pseudomonas aeruginosa [4] = assay: Antibacterial activity against Pseudomonas aeruginosa ATCC 27853 assessed as inhibition of bacterial growth by CLSI based continuous dilution method; assay type: functional
Staphylococcus aureus [5] = assay: Antibacterial activity against Staphylococcus aureus assessed as inhibition of bacterial growth by CLSI based continuous dilution method; assay type: functional
Staphylococcus aureus [6] = assay: Antibacterial activity against Staphylococcus aureus ATCC 25923 assessed as inhibition of bacterial growth by CLSI based continuous dilution method; assay type: functional
Enterococcus faecalis = assay: Antibacterial activity against Enterococcus faecalis assessed as inhibition of bacterial growth by CLSI based continuous dilution method; assay type: functional
Staphylococcus aureus [7] = assay: Antibacterial activity against Staphylococcus aureus ATCC 29213 assessed as inhibition of bacterial growth by CLSI based continuous dilution method; assay type: functional
Staphylococcus aureus [8] = assay: Antibacterial activity against methicillin-resistant Staphylococcus aureus assessed as inhibition of bacterial growth by CLSI based continuous dilution method; assay type: functional
Pseudomonas aeruginosa [9] = assay: Induction of drug resistance in Pseudomonas aeruginosa assessed as fold increase in MIC measured after 11 passages; assay type: functional
Pseudomonas aeruginosa [10] = assay: Induction of drug resistance in Pseudomonas aeruginosa assessed as reduction in susceptibility measured after 6 passages; assay type: functional

| SMILES | MIC (Escherichia coli [1]) [µM] | MIC (Acinetobacter baumannii) [µM] | Activity (Aspergillus fumigatus) | MIC (Pseudomonas aeruginosa [2]) [µM] | MIC (Klebsiella pneumoniae) [µM] | MIC (Escherichia coli [3]) [µM] | MIC (Pseudomonas aeruginosa [4]) [µM] | MIC (Staphylococcus aureus [5]) [µM] | MIC (Staphylococcus aureus [6]) [µM] | MIC (Enterococcus faecalis) [µM] | MIC (Staphylococcus aureus [7]) [µM] | MIC (Staphylococcus aureus [8]) [µM] | fold change (FC) (Pseudomonas aeruginosa [9]) | Activity (Pseudomonas aeruginosa [10]) |
| --- | --- | --- | --- | --- | --- | --- | --- | --- | --- | --- | --- | --- | --- | --- |
| CCCO/N=C/c1cc(OC)c(OCC(O)Cn2c([N+](=O)[O-])cnc2C)c2c1CC1c3cc4c(cc3CCN1C2)OCO4 (stereo not drawn) | 215 (≈ 128 µg/mL) | 863 (≈ 512 µg/mL) | Active | 863 (≈ 512 µg/mL) | 863 (≈ 512 µg/mL) | 863 (≈ 512 µg/mL) | 863 (≈ 512 µg/mL) | 863 (≈ 512 µg/mL) | 215 (≈ 128 µg/mL) | 863 (≈ 512 µg/mL) | 863 (≈ 512 µg/mL) | 863 (≈ 512 µg/mL) |  |  |
| CCCCO/N=C/c1cc(OC)c(OCC(O)Cn2c([N+](=O)[O-])cnc2C)c2c1CC1c3cc4c(cc3CCN1C2)OCO4 (stereo not drawn) | 843 (≈ 512 µg/mL) | 843 (≈ 512 µg/mL) | Active | 843 (≈ 512 µg/mL) | 843 (≈ 512 µg/mL) | 843 (≈ 512 µg/mL) | 843 (≈ 512 µg/mL) | 843 (≈ 512 µg/mL) | 843 (≈ 512 µg/mL) | 843 (≈ 512 µg/mL) | 843 (≈ 512 µg/mL) | 843 (≈ 512 µg/mL) |  |  |
| C=CCO/N=C/c1cc(OC)c(OCC(O)Cn2c([N+](=O)[O-])cnc2C)c2c1CC1c3cc4c(cc3CCN1C2)OCO4 (stereo not drawn) | 216 (≈ 128 µg/mL) | 216 (≈ 128 µg/mL) | Active | 216 (≈ 128 µg/mL) | 54 (≈ 31.9 µg/mL) | 433 (≈ 256 µg/mL) | 54 (≈ 31.9 µg/mL) | 108 (≈ 63.9 µg/mL) | 54 (≈ 31.9 µg/mL) | 216 (≈ 128 µg/mL) | 216 (≈ 128 µg/mL) | 54 (≈ 31.9 µg/mL) |  |  |
| COc1cc(/C=N/OC(C)(C)C)c2c(c1OCC(O)Cn1c([N+](=O)[O-])cnc1C)CN1CCc3cc4c(cc3C1C2)OCO4 (stereo not drawn) | 211 (≈ 128 µg/mL) | 211 (≈ 128 µg/mL) | Active | 211 (≈ 128 µg/mL) | 52 (≈ 31.6 µg/mL) | 422 (≈ 256 µg/mL) | 52 (≈ 31.6 µg/mL) | 105 (≈ 63.8 µg/mL) | 52 (≈ 31.6 µg/mL) | 211 (≈ 128 µg/mL) | 211 (≈ 128 µg/mL) | 52 (≈ 31.6 µg/mL) |  |  |
| CO/N=C/c1cc(OC)c(OCC(O)Cn2c([N+](=O)[O-])cnc2C)c2c1CC1c3cc4c(cc3CCN1C2)OCO4 (stereo not drawn) | 905 (≈ 512 µg/mL) | 905 (≈ 512 µg/mL) | Active | 905 (≈ 512 µg/mL) | 905 (≈ 512 µg/mL) | 905 (≈ 512 µg/mL) | 113 (≈ 63.9 µg/mL) | 452 (≈ 256 µg/mL) | 56 (≈ 31.7 µg/mL) | 226 (≈ 128 µg/mL) | 905 (≈ 512 µg/mL) | 905 (≈ 512 µg/mL) |  |  |
| CCn1cc(C(=O)O)c(=O)c2cc(F)c(N3CCNCC3)cc21 [NORFLOXACIN] | 25 (≈ 7.98 µg/mL) | 25 (≈ 7.98 µg/mL) |  | 50 (≈ 16 µg/mL) | 25 (≈ 7.98 µg/mL) | 50 (≈ 16 µg/mL) | 12 (≈ 3.83 µg/mL) | 25 (≈ 7.98 µg/mL) | 100 (≈ 31.9 µg/mL) | 6 (≈ 1.92 µg/mL) | 3 (≈ 0.958 µg/mL) | 25 (≈ 7.98 µg/mL) | 8 | Active |
